What was measured:
[1] = target: Human immunodeficiency virus type 1 reverse transcriptase (Human immunodeficiency virus 1, UniProt Q72547); experiment: Inhibition of HIV1 reverse transcriptase
[2] = target: Human immunodeficiency virus type 1 integrase (Human immunodeficiency virus 1, UniProt Q7ZJM1); experiment: Inhibition of HIV1 integrase expressed in Escherichia coli BL21 (DE3)
[3] = Cytotoxicity against human PBMC; assay type: cell-based; conditions: PBMC (peripheral blood mononuclear cells)
[4] = Theraputc index, ratio of CC50 of PBMC cells to EC50 of HIV1 NL4-3; assay type: ADME, cell-based; conditions: read-out: Ratio CC50/EC50
[5] = system: Human immunodeficiency virus 1; experiment: Antiviral activity against HIV1 NL4-3 in human PBMC; assay type: functional, organism-based; conditions: Human immunodeficiency virus 1, NL4.3
[6] = system: Human immunodeficiency virus 1; experiment: Antiviral activity against HIV1 3B in CEM-SS cells by cytoprotection assay; assay type: functional; set-up: concentration or dose not given beside the values
[7] = Cytotoxicity against CEM-SS cells assessed as cell viability; assay type: cell-based; conditions: human, read-out: Activity

Human immunodeficiency virus type 1 integrase, sequence (Q7ZJM1 whole entry): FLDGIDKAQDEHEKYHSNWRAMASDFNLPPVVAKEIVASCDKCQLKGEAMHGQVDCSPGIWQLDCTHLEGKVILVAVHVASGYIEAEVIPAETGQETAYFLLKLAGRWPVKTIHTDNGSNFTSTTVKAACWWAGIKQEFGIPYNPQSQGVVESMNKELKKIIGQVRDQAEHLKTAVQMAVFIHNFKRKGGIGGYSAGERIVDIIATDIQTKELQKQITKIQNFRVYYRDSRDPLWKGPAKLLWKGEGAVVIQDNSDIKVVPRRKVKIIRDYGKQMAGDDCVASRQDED

Row | IC50 [1] [nM] | IC50 [2] [nM] | EC50 [5] [nM] | SMILES | CC50 [3] [nM] | selectivity ratio [4] | Activity [6] [%] | viability [7] [%]
1 | > 100000 |  | 160 | O=C(O)/C(O)=C/C(=O)c1cccc(Cc2ccccc2)c1 | > 10000 |  |  | 
2 | 24.2 | 4440 | 9.7 | CCc1c(Cc2cc(C)cc(C)c2)n(COCc2ccc(C(=O)/C=C(\O)C(=O)O)cc2)c(=O)[nH]c1=O | > 10000 | > 1000 | 100 | 100
3 | 1200 | 1100 | 3000 | O=Cc1ccc(-c2cc(-c3cccc(C=O)c3)c(O)c(O)c(=O)c2O)cc1 | 6000 | 2 |  | 
4 | 16 | > 100000 | 16 | CC(C)c1c(Cc2ccccc2)n(COCc2ccccc2)c(=O)[nH]c1=O | > 10000 | > 160 |  | 

More lines, now with the values behind:

Row | SMILES | IC50 [1] [nM] | IC50 [2] [nM] | EC50 [5] [nM] | CC50 [3] [nM] | selectivity ratio [4] | Activity [6] [%] | viability [7] [%]
5 | O=C(Nc1ccc2c(O)c(/N=N/c3ccc(C(=O)O)cc3)c(S(=O)(=O)O)cc2c1)Nc1ccc2c(O)c(/N=N/c3ccc(C(=O)O)cc3)c(S(=O)(=O)O)cc2c1 | 390 | 700 |  |  |  |  | 
6 | O=[N+]([O-])c1ccc(C2c3c(O)nc(S)nc3Oc3nc(S)nc(O)c32)cc1 | 4800 | 300 |  | 120000 | 14 |  | 
7 | Cc1cc(C)cc(Cc2c(C(C)C)c(=O)[nH]c(=O)n2COCc2ccc(C(=O)/C=C(\O)C(=O)O)cc2)c1 | 9.2 | 7670 | 17 | > 10000 | > 600 | 100 | 100
8 | CCc1c(Cc2ccccc2)n(COCc2ccc(C(=O)/C=C(\O)C(=O)O)cc2)c(=O)[nH]c1=O | 235 | 1820 | 52 | > 10000 | > 190 | 95.2 | 91
9 | CC(C)c1c(Cc2ccccc2)n(COCc2ccc(C(=O)/C=C(\O)C(=O)O)cc2)c(=O)[nH]c1=O | 57 | 2410 | 33 | > 10000 | > 310 | 100 | 90
